Results reported in PMC7955127, “Preclinical small molecule WEHI-7326 overcomes drug resistance and elicits response in patient-derived xenograft models of human treatment-refractory tumors” (Cell Death & Disease, 2021).

Key:
porcine tubulin = test: Tubulin in vitro polymerization assay (fluorescence-based, BK011P); assay type: biochemical; details: purified tubulin
Protocol: A commercial fluorescence-based tubulin polymerization assay (Cytoskeleton, Denver, CO; Cat. # BK011P) was used as per manufacturer’s instructions for detection of tubulin polymerization inhibitors. Briefly, porcine tubulin (3 mg/ml tubulin in 80 mM PIPES pH 7.0, 0.5 mM EGTA, 2 mM MgCl2, 1 mM GTP and 10% glycerol) was incubated at 37 °C with either vehicle control (DMSO), with Paclitaxel or antimitotic compound. Each condition was tested in duplicate. Polymerization was measured over time by excitation at 360 nm and emission at 420 nm in a temperature controlled 96-well plate fluorimeter (Envision 2105, Perkin-Elmer, Waltham, MS) equipped with filters for excitation at 340–360 nm and emission at 420–450 nm.

LIM1899 = test: Cell growth inhibition assay, LIM1899; assay type: cell-based; details: Homo sapiens; LIM1899, colon carcinoma; 72 h viability assay, CellTiterGlo; mean of 3 ± SEM; read-out: IC50 (inhibition of cellular proliferation)
Protocol: Cells were plated at a density of between 500 to 5000 cells per well for adherent cell lines depending on doubling time, and 15,000 cells per well for lymphoblastic leukemia cell lines, in a 96-well plate in 200 μl of growth media. Plates were incubated overnight at 37 °C before adding the inhibitors. Inhibitors were serially diluted from the stock solutions in complete medium and added to the cells. […] Cell viability was assessed by the AlamarBlue (Invitrogen) or CellTiterBlue/Glo (Promega) method according to manufacturer’s instructions. The curve fits and IC50 values were generated in PRISM (GraphPad, San Diego, CA).

AH406 LUSC PDX = test: LUSC PDX model AH406; assay type: in vivo, NOD-SCID-IL2Rγc–/– mice; details: WEHI-7326 20 mg/kg i.v. biweekly, docetaxel 10 mg/kg i.p. once
Protocol: LUSC PDXs were generated as described in[25]. PDXs at passage 4 were defrosted and washed with PBS before counting. 200,000 to 500,000 cells were then injected in a 50:50 PBS:Matrigel mix into the flanks of NOD-SCID-IL2Rγc–/– male mice. Tumors were measured twice weekly with calipers and treatment started when tumors were between 70–120 mm^3. Mice were assigned to treatment groups based on average tumor volume per group. Mice were culled when tumors reached a volume of 600 mm^3.

HepG2 cytotoxic assay = assay type: cell-based; details: human; HepG2 cells, cell viability after 48 h
Protocol: a Chemical structures of the triazine-based anti-mitotics used in this study. b Dose-dependent antiproliferative activity of key derivatives and comparison with commonly used anti-mitotics in SW480 cell line: Data shown is cell viability (as measured by CellTiterGlo) after 72 h relative to untreated control cells. Shown is mean of 3 independent experiments performed in duplicate +/- SEM. c Dose-dependent cell cycle analysis of key derivatives of WEHI-7326 development in SW480 cell line. Data are presented as percentage of cells in G2/M or subG0 after 24 h incubation with titration of inhibitors as assessed by PI staining and flow cytometry. Mean average of 3 experiments +/- SEM. d Comparison of IC50 and EC50 values of triazine compounds and anti-mitotic drugs in SW480 cell line: inhibition of cellular proliferation and cell cycle arrest in G2/M. IC50 and EC50 values are the mean of 3 independent experiments run in duplicates +/- SEM (n.d. = not determined). e HepG2 cytotoxic assay: cell viability assay after 48 h, normalised to 0.4% DMSO (100% viability) and 2 μM bortezomib (0% viability). The data is the mean average of 2 experiments +/- SD.

[1] = Measured physicochemical and solubility data
Text: a Measured physicochemical and solubility data for WEHI-7326. […] Microsomal-predicted EH values are included.

tubulin in SW480 cells = test: Tubulin polymerization in cells (polymerized vs soluble, western blot); assay type: cell-based, human; details: 100 nM, overnight, vs control cells
Protocol: Cells incubated with control or with inhibitors were lysed in hypotonic buffer (1 mM MgCl2/2 mM EGTA/0.5% Nonidet P-40/20 mM Tris·HCl, pH 6.8 with the addition of complete protease inhibitor cocktail). The lysates were centrifuged at 14,000 rpm for 10 min at RT. Supernatants (containing soluble tubulin) and pellets (containing polymerized tubulin) were separated and each sample was brought to an equal volume with hypotonic buffer. Proteins were resolved by SDS/PAGE on 4–12% gels (Invitrogen, Carlsbad, CA), transferred to nitrocellulose and immunoblotted with an antibody against tubulin followed by fluorescent secondary antibody. Immunoreactive bands were detected using an Odyssey photometer (Li-Cor, Lincoln, NB).

Compound: COc1ccc(CNc2nc(NCc3ccc(CN)cc3)nc(NN3CC(=O)NC3=O)n2)cc1 [WEHI-7326]
- Effect on in vitro tubulin polymerization (porcine tubulin; 50 μM): markedly slowed tubulin polymerization
- Effect on in vitro tubulin polymerization rates (porcine tubulin; concentrations up to 15 μM, vs vehicle): did not affect
- IC50 (LIM1899): 31.3 ± 2.6 nM
- Median survival (AH406 LUSC PDX): 29 days
- IC50 at 48 h (HepG2 cytotoxic assay): > 40000 nM
- Lipophilicity [1]: very low
- Solubility in common dosing vehicles ([1]; 5% [w/v] glucose, 0.9% [w/v] saline and isotonic acetate buffer pH 5): soluble
- Stability in dosing vehicles ([1]; storage in common dosing vehicles): negligible degradation
- Change in ratio of polymerized to soluble tubulin (tubulin in SW480 cells): no significant change
